The text below walks through data of patent publication US20060258598A1, “Alpha-keto carbonyl calpain inhibitors” (priority 2003, published 2006).

Assay [1] has as its system Primary fibroblasts from donors with Friedreich Ataxia (FRDA). Put plainly: BSO assay (cell viability under BSO-induced oxidative stress). Type of assay: cell-based, human. Particulars: 24 h preincubation, 1 mM BSO; for pEC50: Homo sapiens, Fibroblast. As to the method:
Primary fibroblasts were derived from donors with molecular diagnosis for Friedreich Ataxia (FRDA) and control donors with no mitochondrial disease. Cell lines were obtained from Coriell Cell Repositories (Camden, N.J.; catalog numbers GM04078, GM08402 and GM08399 respectively). All cell types were diagnosed on the molecular level for intronic […] triplet repeat length of at least 400-450 repeats using a PCR-based method. Experiments were carried out as described in the literature (M. L. Jauslin et al., Human Mol. Genet., 2002, 11, 3055-3063): Cells were seeded in microtiter plates at a density of 4'000 cells per 100 μl in growth medium consisting of 25% (v/v) M199 EBS and 64% (v/v) MEM EBS without phenol red (Bioconcept, Allschwil, Switzerland) supplemented with 10% (v/v) fetal calf serum (PAA Laboratories, Linz, Austria), 100 U/ml penicillin, 100 μg/ml streptomycin (PAA Laboratories, Linz, Austria), 10 μg/ml insulin (Sigma, Buchs, Switzerland), 10 ng/ml EGF (Sigma, Buchs, Switzerland), 10 ng/ml bFGF (PreproTech, Rocky Hill, N.J.) and 2 mM glutamine (Sigma, Buchs, Switzerland). The cells were incubated in the presence of various test compounds for 24 h before addition of L-buthionine-(S,R)-sulfoximine (BSO) to a final concentration of 1 mM. Cell viability was measured after the first signs of toxicity appeared in the BSO-treated controls (typically after 16 to 48 h). The cells were stained for 60 min at room temperature in PBS with 1.2 μM calcein AM and 4 μM ethidium homodimer (Live/Dead assay, Molecular Probes, Eugene, Oreg.). Fluorescence intensity was measured with a Gemini Spectramax XS spectrofluorimeter (Molecular Devices, Sunnyvale, Calif.) using excitation and emission wavelengths of 485 nm and 525 nm respectively.

Assay [2] relates to cellular calpains in C2C12 myoblasts. Put plainly: Calpain inhibition assay in C2C12 myoblasts. Type of assay: cell-based. Particulars: 2 h incubation, calcium ionophore Br-A-23187, read-out: Calp I IC50 Myoblast. As for the experimental part:
Calpain Inhibition Assay in C2C12 Myoblasts
This assay is aimed at monitoring the ability of the substance to inhibit cellular calpains. C2C12 myoblasts are grown in 96-well plates in growth medium (DMEM, 20% foetal calf serum) until they reach confluency. The growth medium is then replaced by fusion medium (DMEM, 5% horse serum). 24 hours later the fusion medium is replaced by fusion medium containing the test substances dissolved in 1 μl DMSO. After 2 hours of incubation at 37° C. the cells are loaded with the calpain fluorogenic substrate Suc-Leu-Tyr-AMC at 400 μM in 50 μl of a reaction buffer containing 135 mM NaCl; 5 mM KCl; 4 mM CaCl2; 1 mM MgCl2; 10 mM Glucose; 10 mM HEPES pH 7.25 for 20 min at room temperature. The calcium influx, necessary to activate the cellular calpains, is evoked by the addition of 50 μl reaction buffer containing 20 μM of the calcium ionophore Br-A-23187 (Molecular Probes). The fluorescence of the cleavage product AMC is measured as described above during 60 min at 37° C. at intervals of 1 min. The IC50 values are determined as described above. Comparison of the IC50 determined in the enzymatic calpain inhibition assay to the IC50 determined in the C2C12 myoblasts calpain inhibiton assay, allows to evaluate the cellular uptake or the membrane permeability of the substance.

Assay [3] has as its target T1, human μ-calpain (Homo sapiens, UniProt P07384).
T1 construct: purchased Calbiochem
T1 sequence (P07384 1-714): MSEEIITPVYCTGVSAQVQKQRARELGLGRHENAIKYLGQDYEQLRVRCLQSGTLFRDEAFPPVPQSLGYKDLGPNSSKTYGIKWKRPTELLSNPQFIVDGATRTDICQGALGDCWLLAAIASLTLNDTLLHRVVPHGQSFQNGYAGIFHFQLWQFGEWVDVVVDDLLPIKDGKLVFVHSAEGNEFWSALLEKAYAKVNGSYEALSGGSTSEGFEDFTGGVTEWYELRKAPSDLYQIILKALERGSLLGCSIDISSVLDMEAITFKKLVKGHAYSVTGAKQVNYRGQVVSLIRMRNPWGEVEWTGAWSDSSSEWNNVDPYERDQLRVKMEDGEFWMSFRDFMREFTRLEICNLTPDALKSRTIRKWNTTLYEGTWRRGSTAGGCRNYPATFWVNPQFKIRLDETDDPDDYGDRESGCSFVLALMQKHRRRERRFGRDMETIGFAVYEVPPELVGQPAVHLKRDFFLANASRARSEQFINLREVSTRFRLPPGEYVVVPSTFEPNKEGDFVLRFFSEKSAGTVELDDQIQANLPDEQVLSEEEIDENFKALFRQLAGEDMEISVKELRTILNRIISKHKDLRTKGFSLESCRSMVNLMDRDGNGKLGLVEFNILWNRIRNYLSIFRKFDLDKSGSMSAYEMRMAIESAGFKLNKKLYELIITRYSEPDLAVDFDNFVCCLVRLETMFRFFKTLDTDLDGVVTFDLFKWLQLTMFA
T1 sequence (P04632 1-268 partner): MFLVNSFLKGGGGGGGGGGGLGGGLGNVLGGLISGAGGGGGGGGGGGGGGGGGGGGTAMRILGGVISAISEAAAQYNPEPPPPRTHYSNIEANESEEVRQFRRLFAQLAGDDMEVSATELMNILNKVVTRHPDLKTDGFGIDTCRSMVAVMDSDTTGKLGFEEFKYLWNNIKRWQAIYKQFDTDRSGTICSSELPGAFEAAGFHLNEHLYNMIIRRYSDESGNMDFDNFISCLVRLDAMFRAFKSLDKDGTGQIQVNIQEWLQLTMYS
Put plainly: Enzymatic calpain inhibition assay. It counts as biochemical. Conditions: substrate Suc-Leu-Tyr-AMC, read-out: Calp I IC50. As to the method:
The Ki value was also determined in some cases. These criteria were used to measure the inhibitory effect of the compounds (I) on calpain I, calpain II and cathepsin B.
Enzymatic Calpain Inhibition Assay
The inhibitory properties of calpain inhibitors are tested in 100 μl of a buffer containing 100 mM imidazole pH 7.5, 5 mM L-Cystein-HCl, 5 mM CaCl2, 250 μM of the calpain fluorogenic substrate Suc-Leu-Tyr-AMC (Sigma) (Sasaki et al., J. Biol. Chem., 1984, 259, 12489-12949) dissolved in 2.5 μl DMSO and 0.5 μg of human μ-calpain (Calbiochem). The inhibitors dissolved in 1 μl DMSO are added to the reaction buffer. The fluorescence of the cleavage product 7-amino-4-methylcoumarin (AMC) is followed in a SPECTRAmax GEMINI XS (Molecular Device) fluorimeter at λex=360 nm and λem=440 nm at 30° C. during 30 min at intervals of 30 sec in 96-well plates (Greiner). The initial reaction velocity at different inhibitor concentrations is plotted against the inhibitor concentration and the IC50 values determined graphically.

pEC50, pIC50: −log10 of the molar value. Bounds are passed on as bounds.

Broadly, the pEC50 is the EC50 on a negative log10 scale, so that one unit is a factor of ten. In general, pIC50 refers to −log10 of the IC50, conventionally taken in molar units.

In turn, `CCNC(=O)C(=O)[C@H](Cc1ccc(C#N)cc1)NC(=O)[C@@H](NC(=O)CCCCC1CCSS1)C(C)C` (stereo partly drawn) [Example 130] showed a pEC50 in assay [1] of 4.70. For the same compound, the pIC50 in assay [2] was 5.30; in assay [3], 6.92.
`CCNC(=O)C(=O)[C@H](Cc1ccc(Br)cc1)NC(=O)[C@H](CC(C)C)NC(=O)CNC(=O)CCCCC1CCSS1` (stereo partly drawn) [Example 186] had a negative logarithm of the EC50 (pEC50) in assay [1] of 5.30. For the same compound, the figures for the pIC50 in assay [2] and in assay [3] were 5.82 and 7.40, respectively.
On to `CCNC(=O)C(=O)[C@H](Cc1ccc(OC)cc1)NC(=O)[C@@H](NC(=O)c1ccc(NC(=O)CCCCC2CCSS2)cc1)C(C)C` (stereo partly drawn) [Example 196], for which, in assay [1], the pEC50 is 5.70. The negative logarithm of the IC50 (pIC50) in assay [2] is 6.40; in assay [3], under 6.00.
On the same counts, the results for `CCNC(=O)C(=O)[C@H](Cc1ccccc1)NC(=O)[C@@H](NC(=O)CCCCC1CCSS1)C(C)C` (stereo partly drawn) [Example 138] are 5.00, 5.46 and 7.10.
Consider `CCNC(=O)C(=O)[C@H](Cc1ccc(OC)cc1)NC(=O)[C@@H](NC(=O)CCCCC1CCS[S+]1[O-])C(C)C` (stereo partly drawn) [Example 85], for which the negative logarithm of the EC50 (pEC50) in assay [1] was 5.30. In addition, the pIC50 in assay [2] is 6.05; in assay [3], 7.10.
Take `CCNC(=O)C(=O)[C@H](Cc1ccc(C)cc1)NC(=O)[C@@H](NC(=O)CCCCC1CCS[S+]1[O-])C(C)C` (stereo partly drawn) [Example 105]: the pEC50 in assay [1] is 6.70. Moreover, the negative-log IC50 (pIC50) in assay [2] is 6.00; in assay [3], 7.10.
`CCNC(=O)C(=O)[C@H](Cc1ccc(Br)cc1)NC(=O)[C@@H](NC(=O)CCCCC1CCSS1)C(C)CC` (stereo partly drawn) [Example 74] gave a pEC50 in assay [1] of 5.52. In addition, the pIC50 in assay [2] was 5.05; in assay [3], 6.74.
Taken in the same sequence, the figures for `CCNC(=O)C(=O)[C@H](Cc1ccc(F)cc1)NC(=O)[C@@H](NC(=O)CCCCC1CCS[S+]1[O-])C(C)C` (stereo partly drawn) [Example 38] were 4.70, 5.15 and 6.74.
On the same counts, the results for `CCNC(=O)C(=O)[C@H](Cc1ccc(C#N)cc1)NC(=O)[C@H](CC(C)C)NC(=O)CCCCC1CCS[S+]1[O-]` (stereo partly drawn) [Example 133] are 4.82, 5.60 and 7.30.
On the same counts, the results for `CCNC(=O)C(=O)[C@H](Cc1ccc(Cl)cc1)NC(=O)[C@@H](NC(=O)CCNC(=O)CCCCC1CCSS1)C(C)C` (stereo partly drawn) [Example 172] are 5.52, 4.52 and 7.40.
Take `CCNC(=O)C(=O)[C@H](Cc1ccc(Cl)cc1)NC(=O)[C@H](CC(C)(C)C)NC(=O)CCCCC1CCSS1` (stereo partly drawn) [Example 27]: the “BSO EC50” value in assay [1] was “inactive”. The pIC50 is 5.46 in assay [2] and 7.00 in assay [3].
As for `CCNC(=O)C(=O)[C@H](Cc1cccc(C(F)(F)F)c1)NC(=O)[C@H](CC(C)C)NC(=O)CCCCC1CCSS1` (stereo partly drawn) [Example 128], in assay [1], the pEC50 is 4.70. The pIC50 in assay [2] is 4.82; in assay [3], 7.00.
As for `CCNC(=O)C(=O)[C@H](Cc1ccc(Cl)cc1Cl)NC(=O)[C@@H](NC(=O)CCCCC1CCSS1)C(C)C` (stereo partly drawn) [Example 33], in assay [1], the “BSO EC50” value was “inactive”. Moreover, the negative-log IC50 (pIC50) in assay [2] is 4.40; in assay [3], 7.00.
Compound `CCNC(=O)C(=O)[C@H](Cc1ccc(OC)cc1)NC(=O)[C@@H](NC(=O)c1ccccc1NC(=O)CCCCC1CCS[S+]1[O-])C(C)C` (stereo partly drawn) [Example 199] had a pEC50 in assay [1] of 5.40. Also, the negative logarithm of the IC50 (pIC50) in assay [2] was 5.92; in assay [3] it was 7.59.
Taken in the same sequence, the figures for `CCNC(=O)C(=O)[C@H](Cc1ccc(OC)cc1)NC(=O)[C@@H](NC(=O)CCCCC1CCSS1)C(C)C` (stereo partly drawn) [Example 84] were 5.70, 5.40 and 6.40.
Taken in the same sequence, the figures for `CCNC(=O)C(=O)[C@H](Cc1ccccc1)NC(=O)[C@H](CC(C)(C)C)NC(=O)CCCCC1CCSS1` (stereo partly drawn) [Example 143] were 5.70, 5.00 and 6.92.
Turning to `CCNC(=O)C(=O)[C@H](Cc1ccc(Cl)cc1)NC(=O)[C@@H](NC(=O)CCCC1CCCS1)C(C)C` (stereo partly drawn) [Example 5], in assay [1], the negative-log EC50 (pEC50) was 5.70. The pIC50 in assay [2] is 5.70; in assay [3], 6.92.
In assay [1], `CCNC(=O)C(=O)[C@H](Cc1cccs1)NC(=O)[C@@H](NC(=O)CCCCC1CCSS1)C(C)C` (stereo partly drawn) [Example 145] showed a pEC50 of 5.82. Moreover, the pIC50 was 5.22 in assay [2] and 7.00 in assay [3].
With `CCNC(=O)C(=O)[C@H](Cc1ccc(F)cc1)NC(=O)[C@@H](NC(=O)CCCCC1CCSS1)C(C)C` (stereo partly drawn) [Example 37], the “BSO EC50” value in assay [1] was “inactive”. Further, the negative-log IC50 (pIC50) in assay [2] was 5.60; in assay [3] it was 7.00.
`CCNC(=O)C(=O)[C@H](Cc1ccc(Cl)cc1)NC(=O)[C@@H](NC(=O)CCCCC1CCS[S+]1[O-])C(C)C` (stereo partly drawn) [Example 2] gave a pEC50 in assay [1] of 5.70. Further, the pIC50 in assay [2] is 5.22; in assay [3], 7.10.
`CCNC(=O)C(=O)[C@H](Cc1ccc(Br)cc1)NC(=O)[C@@H](NC(=O)CNC(=O)CCCCC1CCS[S+]1[O-])C(C)C` (stereo partly drawn) [Example 184] showed a pEC50 in assay [1] of 5.00. In addition, the results for the pIC50 in assay [2] and in assay [3] were 5.26 and 7.00, respectively.
Taken in the same sequence, the figures for `CCNC(=O)C(=O)[C@H](Cc1ccc(OC)cc1)NC(=O)[C@@H](NC(=O)C1(NC(=O)CCCCC2CCSS2)CC1)C(C)C` (stereo partly drawn) [Example 192] were 5.82, 5.49 and 6.43.
